Assay [1] has as its system cellular reprogramming. The assay can be described thus: Enhancement of cellular reprogramming by nuclear receptor ligands. It is filed as cell-based.
For assay [2], the system named is mouse fibroblasts. Briefly: Reprogramming of mouse fibroblasts with exogenous poly-Arg transcription factor proteins. It is filed as cell-based. Particulars: cells incubated with transcription factor proteins plus agent. The method, then:
Mouse fibroblasts were grown in mESC medium supplemented with 8 μg/ml of either Oct4/Sox2/Klf4 or Oct4/Sox2/Klf4/Myc (all proteins comprising poly-Arg as described above) for 6-8 hours, washed, and incubated for 2-3 days in mESC media without the above-listed transcription factors. This (4-12 hours with, 1-3 days without) was repeated a number (1, 2, 3, 4, or more) of times and then the cells were cultured in mESC for two weeks.
Mouse fibroblasts were grown in mESC growth medium [Knockout DMEM (Invitrogen) supplemented with 10% ES-FBS+10% KSR, 0.1 mM 2-ME, 1% Glutamax, 1% Non-essential amino acids, 1% EmbryoMax ESC Qualified Nucleosides (Millipore), and 10^3 units/ml LIF (ESGRO, Chemicon International)] supplemented with 8 μg/ml of Oct4/Sox2/Klf4/Myc (all four transcription factors are tagged with poly-Arg […]; SEQ ID NO:2) for 4-12 hours, followed by culturing the cells in the absence of the Oct4/Sox2/Klf4/Myc polypeptides for one day. This procedure was repeated 4 times. The cells were then cultured in mESC medium for another two weeks. iPSC clones were detected by colony morphology and expression of pluripotency markers. An intermediate iPSC clone, which expresses ALP but not Oct4 (Oct4), was dissociated with Trypsin-EDTA. The clone was then expanded by continuous culturing with regular mESC medium or medium supplemented with 0.5 μM PD0325901, 3 μM CHIR99021, 0.5 μM A-83-01. The number of Oct4-positive colonies were counted 2 weeks after small molecule treatment (FIG. 14).

In assay [3] the test system is OG2 MEFs. The assay can be described thus: Reprogramming of OG2 MEFs retrovirally transduced with OSKM or OSK (EGFP positive colonies). It is filed as cell-based, mouse. Particulars: 2 μM SB431542, 5 μM CHIR99021, 0.1 μM PD0325901. The method, then: MEFs were derived from OG2 mice according to the protocol reported on WiCell Research Institute website: “Introduction to human embryonic stem cell culture methods”. OG2 transgenic mice carry both GFP under the control of the Oct4 promoter. MEFs were transduced with either (1) Oct4, Klf4, Sox2 and c-Myc; or (2) Oct4, Klf4, and Sox2 as described (Takahashi & Yamanaka, Cell. 2006; 126:663-676). […] Transduced MEFs were then treated with chemicals or chemical combinations, including GSK-3 inhibitor CHIR99021 (5 μM), TGFβ receptor inhibitor SB431542 (2 μM), MEK inhibitor PD0325901 (0.1 μM) for 11 days (for Oct4, Klf4, Sox2 and c-Myc transduced MEFs) or 13 days (for Oct4, Klf4 and Sox2 transduced MEFs), and EGFP positive colonies were counted.

Assay [4] concerns human primary fibroblasts (CRL2097 or BJ). Briefly: Reprogramming of human primary fibroblasts transduced with 4TFs. It is filed as cell-based. How it is done:
We tested known inhibitors of the TGFβ receptor and MEK on 1×10^4 [Feng, B. et al., Cell Stem Cell 4, 301-12 (2009)] human primary fibroblasts (CRL2097 or BJ) that were retrovirally transduced with the 4TFs (Oct4, Klf4, Sox2 and c-Myc), for their effects on reprogramming kinetics and efficiency. On day 7 (D7) post-infection, the compounds were added, individually or in combinations, and the cultures were examined for iPSCs over the next 1-3 weeks.
The Slc7a1-expressing human fibroblast cells were seeded at 1×10^5 cells/well of a 6 well plate on the day 1. On day 2, 0.25 ml of each retroviral supernatant was added to the cells in the presence of 6 μg/ml polybrene. A second round of transduction was done on day 3. Infection efficiency was estimated by fluorescence microscopy on cells transduced in parallel with GFP or RFP gene-carrying retroviruses. Seven days after initial transduction, fibroblasts were harvested by trypsinization and re-plated at 1×10^4 cells/well of a 6 well plate coated with matrigel (1:50 dilution, cat 354234, BD Biosciences). For compound treatment, the cells were cultured in human reprogramming medium (DMEM/F12, 20% Knockout serum replacer, lx MEM Non-Essential amino acid, lx glutamax, 0.11 mM 2-Mercaptoethanol, 20 ng/ml bFGF and 1,000 U/ml LIF) and were treated with 2 μM SB431542 (Stemgent), 0.5 μM PD0325901 (Stemgent), or combinations of the compounds. The media were changed every 2-3 days depending on the cell density. Seven days after compound treatment, either the plates were fixed and stained for Alkaline phosphatase (ALP) activity, or stained for protein markers, or the cultures were continued with or without indicated splitting by trypsinization till day 30. For split cultures, the cells were split (1:4) and re-plated onto irradiated CF-1 MEF feeder layer (2.5×10^5 cells/well) in each well of 6 well plate and were split (1:10) again on day 21. The cells were maintained in the same media and compound cocktail described above except for the concentrations of PD0325901 (0.5 μM for D14 and 1 μM for D21) and SB431542 (0.5-1 μM after D14). The iPSC colonies were subsequently maintained in conventional hESC media in the absence of the above compounds.
Alkaline phosphatase staining was performed using ALP detection kit (cat no: SCR004, Chemicon) according to the product instructions. For immunocytochemistry, cells were fixed in 4% paraformaldehyde (10 min, RT), washed twice with PBS, blocked using 5% normal donkey serum (Chemicon) and 0.1% TritonX-100 (15 min, RT) and then treated with primary antibodies overnight at 4° C. The primary antibodies used were anti-NANOG (cat no: AB9220, Chemicon, 1:1,000); anti-OCT4 (cat no: sc-5279, Santa Cruz biotech, 1:200), anti-SSEA 4 (cat no: mab4304, Chemicon, 1:500), anti-Tra-1-81 (cat 560123, BD Biosciences, 1:100), anti-Tra-1-81 (mAb 4381, Chemicon, 1:500), anti-βIII TUBULIN (cat no: MMS-435P, Covance Research Products Inc, 1:1000), anti-PDX 1 (1:500) (a kind gift from Dr. C. Wright), anti-BRACHYURY (cat No: AF2085, R & D, final concentration 0.2 μg/ml). The cells were washed twice with PBS and then treated with secondary antibodies for 1 hour at room temperature. The secondary antibodies used were Alexa fluor 488 donkey anti-rabbit or anti-mouse IgG (Invitrogen, 1:1,000) and Alexa fluor 555 donkey anti-rabbit or anti-mouse IgG (Invitrogen, 1:1,000). Nuclei were stained with 0.5 μg/ml DAPI (Sigma). Images were captured using a Nikon Eclipse TE2000-U/X-cite 120 EXFO microscope with a photometric CoolSnap HQ2 camera.
We tested the TGFβ receptor inhibitor (SB431542), MEK inhibitor (PD0325901) and GSK-3 inhibitor (CHIR99021), on human fibroblast crl2097 that were retrovirally transduced with Oct4, Klf4, Sox2 and c-Myc, for their effects on reprogramming kinetics and efficiency. Conditions are the same as set forth in Example 5. Data were collected 8 days after compound treatment.

Regarding `C=C(c1ccc(C(=O)O)cc1)c1cc2c(cc1C)C(C)(C)CCC2(C)C` [Bexarotene], the cellular reprogramming result in assay [1] (at 3 μM) was “can enhance cellular reprogramming”.
Regarding `CC(C)C[C@H](NC(=O)OCC1c2ccccc2-c2ccccc21)C(=O)O` [Fmoc-Leu], the cellular reprogramming result in assay [1] (used at 5 μM) is listed as “can enhance cellular reprogramming”.
With `NC(=O)c1ccc(-c2nc(-c3ccc4c(c3)OCO4)c(-c3ccccn3)[nH]2)cc1` [SB431542], the “efficiency and speed of development of pluripotent cells” value in assay [2] is “improved efficiency and speed of development of pluripotent cells”. Besides, the reprogramming efficiency in assay [3] (Oct4, Klf4, Sox2 and c-Myc transduced MEFs, 11-day treatment) is around 1.8%; in assay [3] (Oct4, Klf4, and Sox2 transduced MEFs, 13-day treatment), around 1.2%. The “ALP+ colonies with hESC-like morphology (FIG. 7A)” value in assay [4] (4TFs transduced fibroblasts, 7 days after compound treatment, SB431542 at 2 μM) is listed as “yielded colonies with hESC-like morphology as early as 7 days after compound treatment”. Moreover, in assay [4] (30 days), the “number of granulate (partially reprogrammed) colonies” value is recorded as “outnumbered by several fold the few hESC-like colonies”. Moreover, the “dose dependence of effect on reprogramming” value in assay [4] (FIG. 7) is given as “dose dependent”. Moreover, in assay [4] (day 7 post-treatment (D14), SB431542 2 μM, PD0325901 0.5 μM, 1×10^4 cells), the “ALP+ colonies with characteristic hESC-like morphology” value was 1-2 colonies.

The values above are taken from patent publication US9771563B2, “Chemical approaches for generation of induced pluripotent stem cells” (The Scripps Research Institute, priority 2008, dated 2017).
